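Following 48 hours of exposure in 96-well plates, responses at five concentrations were used to interpolate endpoints linearly. GI50 marks 50% less growth.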 Calls of active or inactive are those of the source. Cut-off read from the data, not from the text of the source: active = GI50 up to about 1.1 µM and inactive = higher.
Key:
Experiment in all cases: NCI tumour cell line growth inhibition, 48 h
PC-3 = system: PC-3
HL-60 = system: HL-60
NCI-H460 = system: NCI-H460
A549 = system: A549
SF-295 = system: SF-295
HCC 2998 = system: HCC 2998
T47D = system: T47D
SW-620 = system: SW-620
NCI-H23 = system: NCI-H23
TK-10 = system: TK-10
SF-268 = system: SF-268
UACC-62 = system: UACC-62
OVCAR-3 = system: OVCAR-3
MDA-N = system: MDA-N
OVCAR-8 = system: OVCAR-8
HOP-62 = system: HOP-62
SNB-19 = system: SNB-19
OVCAR-5 = system: OVCAR-5

Measured: GI50

CO/N=C\c1ccc2c(c1)Sc1ccccc1O2
inactive: PC-3 51.9 µM | HL-60 26.2 µM | NCI-H460 40.2 µM | A549 44.8 µM | SF-295 36.3 µM | HCC 2998 45.7 µM | T47D 24.5 µM | SW-620 73.8 µM | NCI-H23 63 µM | TK-10 > 100 µM | SF-268 72.3 µM | UACC-62 71.1 µM | OVCAR-3 > 100 µM | MDA-N 47.2 µM | OVCAR-8 95.9 µM | HOP-62 > 100 µM | SNB-19 > 100 µM | OVCAR-5 48.2 µM

O=c1[nH]nc(Cc2ccccc2)n1C1CCCC1
inactive: PC-3 > 100 µM | HL-60 > 100 µM | NCI-H460 > 100 µM | A549 > 100 µM | SF-295 > 100 µM | HCC 2998 > 100 µM | T47D > 100 µM | SW-620 > 100 µM | NCI-H23 > 100 µM | TK-10 > 100 µM | SF-268 > 100 µM | UACC-62 > 100 µM | OVCAR-3 > 100 µM | MDA-N > 100 µM | OVCAR-8 > 100 µM | HOP-62 > 100 µM | SNB-19 > 100 µM | OVCAR-5 > 100 µM

COc1ccc(C(=O)c2[nH]c(Nc3cc(C)ccn3)c(C(=S)Nc3ccccc3)c2N)cc1
inactive: PC-3 21.2 µM | HL-60 24.3 µM | NCI-H460 6.04 µM | A549 23.4 µM | SF-295 17.9 µM | HCC 2998 17.1 µM | T47D 51.2 µM | SW-620 25.3 µM | NCI-H23 21.9 µM | TK-10 20 µM | SF-268 21.9 µM | UACC-62 12.9 µM | OVCAR-3 41.6 µM | MDA-N 15.3 µM | OVCAR-8 17.2 µM | HOP-62 24.7 µM | SNB-19 18.8 µM | OVCAR-5 26.1 µM

C=C(C)C(=O)O[C@H]1C[C@@]23O[C@@H]2CCC(=C[C@H]2OC(=O)C(=C)[C@H]12)COC3O (stereo partly drawn)
inactive: PC-3 > 100 µM | HL-60 14.7 µM | NCI-H460 > 100 µM | A549 > 100 µM | SF-295 > 100 µM | HCC 2998 69.3 µM | T47D 35.4 µM | SW-620 17.9 µM | NCI-H23 > 100 µM | TK-10 > 100 µM | SF-268 > 100 µM | UACC-62 54.1 µM | OVCAR-3 49.5 µM | MDA-N 49.2 µM | OVCAR-8 39.6 µM | HOP-62 > 100 µM | SNB-19 > 100 µM | OVCAR-5 > 100 µM

CCCCCC(C)(C)CCC(=O)OC1OC(COC2OC(COC3OC(CO)C(O)C(O)C3O)C(O)C(O)C2O)C(O)C(O)C1O (stereo not drawn)
inactive: PC-3 > 100 µM | HL-60 > 100 µM | NCI-H460 > 100 µM | A549 > 100 µM | SF-295 > 100 µM | HCC 2998 > 100 µM | T47D > 100 µM | SW-620 > 100 µM | NCI-H23 > 100 µM | TK-10 > 100 µM | SF-268 > 100 µM | UACC-62 > 100 µM | OVCAR-3 > 100 µM | MDA-N > 100 µM | OVCAR-8 > 100 µM | HOP-62 > 100 µM | SNB-19 > 100 µM | OVCAR-5 > 100 µM

CN(C)c1n/c(=N/Cc2cccs2)ss1
inactive: PC-3 > 10 µM | HL-60 1.35 µM | NCI-H460 > 10 µM | A549 > 10 µM | SF-295 > 10 µM | HCC 2998 > 10 µM | T47D > 10 µM | SW-620 > 10 µM | NCI-H23 > 10 µM | TK-10 > 10 µM | SF-268 > 10 µM | UACC-62 > 10 µM | OVCAR-3 > 10 µM | MDA-N > 10 µM | OVCAR-8 > 10 µM | HOP-62 > 10 µM | SNB-19 > 10 µM | OVCAR-5 > 10 µM

— ChEMBL document CHEMBL1201862, “PubChem BioAssay data set” (2004)
